{
  "source": "patent US11628172B2",
  "about": "“Methods of treating chronic lymphocytic leukemia using 2-(2,6-dioxopiperidin-3-yl)-4-((2-fluoro-4-((3-morpholinoazetidin-1-yl)methyl)benzyl)amino)isoindoline-1,3-dione” (Celgene Corporation, priority 2019, dated 2023)",
  "system": "primary CLL cells from patient-derived blood (CD5+CD19+ tumor cells)",
  "experiment": "Compound 1 in combination with obinutuzumab in B-cell CLL patient cells (ex vivo co-culture, flow cytometry, Caspase3)",
  "assay_type": "cell-based, human",
  "conditions": "144 h",
  "experimental": "Obinutuzumab (GA101) is a humanized, glycoengineered type 2 antibody targeted against CD20. […] The effect of treatment with Compound 1 in combination with obinutuzumab on the proliferation and survival of CLL B cells was assessed utilizing an ex vivo model where primary CLL cells from patient-derived blood were stimulated to proliferate with 10% fetal bovine serum (FBS), 5 ng/mL recombinant human interleukine-4 (rh IL-4), 10 ng/mL recombinant human interleukine-10 (rh IL-10) and co-cultured with fibroblast expressing surface CD154 (CD40L) in a 96 well plate format.\nPeripheral blood mononuclear cells (PBMCs) from CLL patients (Table 7) containing 52%-86% of CD5^+CD19^+ tumor cells were cultured at a density of 0.06-0.1×10^6 cells/well on a monolayer of CD154-expressing fibroblasts at a density of 0.09×10^6 cells/well in 96-well plates in RPMI 1640 medium supplemented with 10% FBS, 5 ng/mL rh IL-4 and 10 ng/mL rh IL-10. The cells were treated with vehicle control (0.1% DMSO) or increasing concentrations of Compound 1 ranging from 0.0001 to 1 μM and GA101 at concentrations ranging from 8 ng/mL to 5 ug/mL across all the different concentrations of Compound 1. After 144 h of treatment with both the agents, flow cytometric analysis was used to determine the number of tumor cells that were viable or apoptotic.\nThe tumor cell count was assessed by staining the patient PBMCs in each condition with tumor cell surface markers CD5 & CD19 along with Live/Dead fixable dye to exclude the dead cells and followed by intracellular staining for Caspase3 antibody to identify the apoptotic cells and was measured by flow cytometry (Attune NxT, Thermo Fisher). The live tumor cell count for each condition was calculated by normalizing to the precision count beads added to each sample.\nThe live tumor cell count was then normalized to the DMSO control (considered as 100% viable) to calculate the percentage of viable cells remaining after treatment. The normalized percentage of tumor cells was then represented as a heat map using Graph Pad Prism 8.0.0 to indicate the degree of tumor toxicity for each of the combinations (FIG. 1). Based on the data shown in FIG. 1, synergy/additivity calculations were performed using the HSA and Bliss Independence Model.\nFor apoptosis analysis, the percentage of apoptosis combining both “early” (Caspase 3 positive and Live-Dead fixable dye negative) and “late” apoptosis (Caspase 3 and Live-Dead fixable dye positive) cell gates subtracting the baseline DMSO value was graphed using GraphPad Prism 8.0.0.0. The Ymax (maximal percentage of apoptosis achieved) values from apoptosis curves were calculated by performing a nonlinear regression curve fitting using log(agonist) vs. normalized response—Variable slope analysis and identifying the maximum value on GraphPad Prism 8.0.0 (Table 8).",
  "data": [
    {"substance": "Obinutuzumab: humanized, glycoengineered type 2 antibody targeted against CD20", "values": [
      {"measurement": "induction of apoptosis (in words)", "setting": "CLL patient cells Pt 11-14, Table 8", "result": "induced apoptosis alone"},
      {"measurement": "Ymax of Pt 11 (%)", "setting": "Pt 11, single agent (Cpd1 DRC with DMSO, or obinutuzumab alone), apoptosis (Caspase 3), DMSO baseline subtracted", "result": 27.98, "unit": "%"},
      {"measurement": "Ymax of Pt 12 (%)", "setting": "Pt 12, single agent (Cpd1 DRC with DMSO, or obinutuzumab alone), apoptosis (Caspase 3), DMSO baseline subtracted", "result": 24.91, "unit": "%"},
      {"measurement": "Ymax of Pt 13 (%)", "setting": "Pt 13, single agent (Cpd1 DRC with DMSO, or obinutuzumab alone), apoptosis (Caspase 3), DMSO baseline subtracted", "result": 35.87, "unit": "%"},
      {"measurement": "Ymax of Pt 14 (%)", "setting": "Pt 14, single agent (Cpd1 DRC with DMSO, or obinutuzumab alone), apoptosis (Caspase 3), DMSO baseline subtracted", "result": 25.82, "unit": "%"}
    ]}
  ]
}
